Like-named read-outs stand apart in the source and are kept apart here.
Legend:
rhTDO = rhTDO (Homo sapiens, UniProt P48775); experiment: Enzyme-based TDO activity assay (kynurenine absorbance at 492 nm); format: biochemical; details: for inhibition at 50 µM: shown when calculated IC50 >50 μM, read-out: TDO inhibition rate (%) at 50 μM
Method: (§1) The compounds on IDO1 or TDO activity were determined as follows: A standard reaction mixture (100 μL) containing 100 mM potassium phosphate buffer (pH 6.5), 40 mM ascorbic acid (neutralized with NaOH), 200 μg/mL catalase, 20 μM methylene blue and 0.05 μM rhIDO1 or rhTDO was added to the solution containing the substrate L-tryptophan and the test sample at a determined concentration. […] The yellow pigment derived from kynurenine was measured at 492 nm using a SYNERGY-H1 microplate reader (Biotek Instruments, Inc., Winooski, VT, USA). IC50 was analyzed using the GraphPad Prism 8.0 software (GraphPad Software, San Diego, CA, USA).

[1] = system: NCI-H460 human lung cancer cell line; experiment: Cell viability MTT assay, 72 h; format: cell-based; details: for inhibition at 50 µM: shown when calculated IC50 >50 μM, read-out: H460 inhibition rate (%) at 50 μM
Method: (§2) B16-F10 mouse melanoma cells, NCI-H460 human lung cancer cell line and MCF7 were obtained from American Type Culture Collection (ATCC). All the cell lines were cultured with Dulbecco’ modified Eagle’s medium (DMEM) (Invitrogen Corporation, Waltham, MA, USA) supplemented with 10% fetal bovine serum (FBS) (Hyclone, Waltham, MA, USA) and 1% penicillin streptomycin (Invitrogen) at 37 °C in 5% CO2.
(§3) The in vitro inhibitory effects of the compounds were measured by MTT assay. Briefly, different kinds of cells were plated in 96-well plates at a density of 2000/well. After attachment for overnight at 37 °C, the cells were treated with the compounds at various concentrations. After 72 h culture, the MTT reagent was added to each well, and plates were incubated for another 4 h at 37 °C. Then, the blue-purple crystal formamidine was dissolved in DMSO after discarding the supernatant. Samples were measured using microplate reader at a wavelength of 570 nm (Biotek Instruments, Inc., Winooski, VT, USA). IC50 values were calculated with GraphPad Prism 8.0 software.

MCF7 = experiment: Cell viability MTT assay, 72 h; format: cell-based; details: Homo sapiens; for inhibition at 50 µM: shown when calculated IC50 >50 μM, read-out: MCF7 inhibition rate (%) at 50 μM
Method: as §2, §3

rhIDO1 = rhIDO1 (Homo sapiens, UniProt P14902); experiment: Enzyme-based IDO1 activity assay (kynurenine absorbance at 492 nm); format: biochemical; details: for inhibition at 50 µM: shown when calculated IC50 >50 μM, read-out: IDO inhibition rate (%) at 50 μM; for IC50: rhIDO1 0.05 μM, 37 °C, 45 min, read-out: IDO IC50
rhIDO1, sequence (P14902 whole entry): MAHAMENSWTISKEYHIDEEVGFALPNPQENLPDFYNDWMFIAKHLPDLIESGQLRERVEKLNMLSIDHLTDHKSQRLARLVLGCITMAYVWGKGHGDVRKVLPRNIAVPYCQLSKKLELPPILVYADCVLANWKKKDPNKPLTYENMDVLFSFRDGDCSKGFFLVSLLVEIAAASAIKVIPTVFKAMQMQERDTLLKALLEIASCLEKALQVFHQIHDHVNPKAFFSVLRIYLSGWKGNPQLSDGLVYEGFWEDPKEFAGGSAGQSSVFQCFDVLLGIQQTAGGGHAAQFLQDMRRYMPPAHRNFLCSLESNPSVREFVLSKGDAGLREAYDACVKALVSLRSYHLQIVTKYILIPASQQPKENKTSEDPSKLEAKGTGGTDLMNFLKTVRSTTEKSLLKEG
Method: as §1

IDO1 = details: cited from earlier work
[2] = Figure 1, reported IDO1 inhibitors

rhTDO, sequence (P48775 whole entry): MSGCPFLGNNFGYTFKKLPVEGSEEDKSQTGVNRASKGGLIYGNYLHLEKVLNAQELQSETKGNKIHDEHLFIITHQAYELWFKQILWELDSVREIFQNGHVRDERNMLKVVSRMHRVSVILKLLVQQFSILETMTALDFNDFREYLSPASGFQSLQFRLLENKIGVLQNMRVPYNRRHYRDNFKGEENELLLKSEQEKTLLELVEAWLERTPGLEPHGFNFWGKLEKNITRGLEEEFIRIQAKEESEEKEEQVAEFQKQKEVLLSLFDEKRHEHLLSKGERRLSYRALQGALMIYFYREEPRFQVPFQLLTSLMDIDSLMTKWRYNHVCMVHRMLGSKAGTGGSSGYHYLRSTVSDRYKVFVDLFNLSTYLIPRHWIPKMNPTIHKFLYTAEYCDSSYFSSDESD

| SMILES | inhibition at 50 µM (rhTDO) [%] | inhibition at 50 µM (rhIDO1) [%] | inhibition at 50 µM [1] [%] | inhibition at 50 µM (MCF7) [%] | other results |
| --- | --- | --- | --- | --- | --- |
| O=C(O)c1c[nH]c2ccc([N+](=O)[O-])cc12 [DX-01-04, 5-nitro-1H-indole-3-carboxylic Acid] | 6 | 3.3 | 15.1 | 24.3 |  |
| O/N=C/c1ccccc1-c1nn[nH]n1 [DX-03-04, (E) 2-(2H-tetrazol-5-yl)benzaldehyde Oxime] | 20.3 | 11.9 | 12.7 | 34.7 |  |
| O/N=C/c1c[nH]c2ccccc12 [DX-01-13, (E) 1H-indole-3-carbaldehyde Oxime] | 8.1 | 19.7 | 23.1 | 10.1 |  |
| O/N=C/c1cc2ccccc2[nH]1 [DX-01-16, (E)-1H-indole-2-carbaldehyde Oxime] | 19.7 |  | 44.5 | 20.9 | IDO1 inhibition, in words (rhIDO1): moderate; IC50 (rhIDO1): 23.2 µM |
| Cc1cccc2[nH]cc(C(=O)O)c12 [DX-01-02, 4-methyl-1H-indole-3-carboxylic Acid] | 10 | 2.4 | 39.2 |  | IC50 (MCF7; read-out: MCF7 IC50): 43.1 µM |
| O=C1c2ccccc2-n2c1nc1ccccc1c2=O [Tryptanthrin] |  |  |  |  | IC50 (IDO1; [2]): 0.534 µM |
| O=C(O)c1c[nH]c2cc([N+](=O)[O-])ccc12 [DX-01-05, 6-nitro-1H-indole-3-carboxylic Acid] | 10.5 | 10.2 | 5.9 | 29.7 |  |
| CC(=O)O[C@H]1C(=O)[C@@]2(C)[C@H]([C@H](OC(=O)c3ccccc3)[C@]3(O)C[C@H](OC(=O)[C@H](O)[C@@H](NC(=O)c4ccccc4)c4ccccc4)C(C)=C1C3(C)C)[C@]1(OC(C)=O)CO[C@@H]1C[C@@H]2O [Taxol, reference compound] |  |  |  |  | IC50 ([1]; read-out: H460 IC50): 0.006 µM; IC50 (MCF7; read-out: MCF7 IC50): 0.015 µM |
| COc1ccc2[nH]cc(C(=O)O)c2c1 [DX-01-06, 5-methoxy-1H-indole-3-carboxylic Acid] | 8.4 | 6.2 | 11.2 | 25.7 |  |
| C[C@@H](C(=O)Nc1ccc(Cl)cc1)C1CCC(c2ccnc3ccc(F)cc23)CC1 (stereo partly drawn) [BMS-986205] |  |  |  |  | IC50 (IDO1; [2]): 0.0017 µM |
| CSc1[nH]c2ccc(F)cc2c1C1CC(=O)NC1=O (racemic) [DX-02-06, (R/S) 3-(5-fluoro-2-(methylthio)-1H-indol-3-yl)pyrrolidine-2,5-dione] | 19.6 | 22.6 | 30.1 | 19.9 |  |
| C[S+]([O-])c1[nH]c2ccc(F)cc2c1C1CC(=O)NC1=O (racemic) [DX-02-07, (R/S) 3-(5-fluoro-2-(methylsulfinyl)-1H-indol-3-yl)pyrrolidine-2,5-dione] | 13.9 | 20.1 | 15.2 | 11 |  |
| CCOC(=O)c1[nH]c2ccc(F)cc2c1C1CC(=O)NC1=O (racemic) [DX-02-03, (R/S) Ethyl 3-(2,5-dioxopyrrolidin-3-yl)-5-fluoro-1H-indole-2-carboxylate] | 15.4 | 21.6 | 21.7 | 22.1 |  |
| ONCc1ccccc1-c1c[nH]cn1 [DX-03-03, N-(2-(1H-imidazol-4-yl)benzyl)hydroxylamine] | 11.1 | 19.4 | 5 | 22.2 |  |
| O=C(O)c1c[nH]c2c(Br)cccc12 [DX-01-07, 7-bromo-1H-indole-3-carboxylic Acid] | 16.9 | 7.4 | 22.2 | 34.6 |  |
| Cc1ccc(NC(=O)Nc2cc([C@H]3C[C@H]3C(=O)O)ccc2N(CC(C)C)CC(C)C)cc1 [BMS-978587] |  |  |  |  | IC50 (IDO1; [2]): 0.0071 µM |
| Cc1ccc2[nH]cc(C(=O)O)c2c1 [DX-01-03, 5-methyl-1H-indole-3-carboxylic Acid] | 10.1 | 10.3 | 26.3 | 37.6 |  |
| Cc1ccc(-c2csc3ncc(C(=O)NCCc4cccc(Cl)c4)n23)cc1 [AMCL-17g] |  |  |  |  | IC50 (IDO1; reported value): 0.077 µM |

Further lines, with some results ahead:

| inhibition at 50 µM (rhTDO) [%] | inhibition at 50 µM (rhIDO1) [%] | SMILES | inhibition at 50 µM [1] [%] | inhibition at 50 µM (MCF7) [%] | other results |
| --- | --- | --- | --- | --- | --- |
| 11.2 | 21.2 | COc1ccc(Cl)cc1-c1nn[nH]c1-c1ccc(C(F)(F)F)cc1 [DX-04-08, 4-(5-chloro-2-methoxyphenyl)-5-(4-(trifluoromethyl)phenyl)-1H-1,2,3-triazole] | 7.5 | 24.9 |  |
| 18 | 9.7 | Oc1ccc(Cl)cc1-c1cn(Cc2ccc(C(F)(F)F)cc2)cn1 [DX-04-02, 4-chloro-2-(1-(4-(trifluoromethyl)benzyl)-1H-imidazol-4-yl)phenol] |  |  | IC50 ([1]; read-out: H460 IC50): 7.69 µM; IC50 (MCF7; read-out: MCF7 IC50): 35.7 µM |
| 21.5 | 13.2 | FC(F)(F)c1ccc(COc2ccccc2-c2csnn2)cc1 [DX-03-10, 4-(2-((4-(trifluoromethyl)benzyl)oxy)phenyl)-1,2,3-thiadiazole] | 7.6 | 24.7 |  |
| 6.4 | 5.3 | O/N=C/c1ccc(-c2ccccc2)cc1-c1c[nH]cn1 [DX-03-09, (E) 3-(1H-imidazol-4-yl)-[1,1′-biphenyl]-4-carbaldehyde Oxime] | 40.5 | 37.7 |  |
| 22.4 |  | Oc1ccc(Cl)cc1-c1cn(Cc2ccc(C(F)(F)F)cc2)nn1 [DX-04-05, 4-chloro-2-(1-(4-(trifluoromethyl)benzyl)-1H-1,2,3-triazol-4-yl)phenol] |  |  | IC50 ([1]; read-out: H460 IC50): 22.9 µM; IC50 (MCF7; read-out: MCF7 IC50): 42.6 µM; IDO1 inhibition, in words (rhIDO1): moderate; IC50 (rhIDO1): 23 µM |
| 26.5 | 46.2 | COc1ccc(Cl)cc1-c1cn(Cc2ccc(C(F)(F)F)cc2)cn1 [DX-04-01, 4-(5-chloro-2-methoxyphenyl)-1-(4-(trifluoromethyl)benzyl)-1H-imidazole] |  |  | IC50 ([1]; read-out: H460 IC50): 12 µM; IC50 (MCF7; read-out: MCF7 IC50): 8.53 µM |
| 38.9 |  | O=C(NCCCOc1ccccc1-c1cnc[nH]1)Nc1ccc(C(F)(F)F)cc1 [DX-03-13, 1-(3-(2-(1H-imidazol-5-yl)phenoxy)propyl)-3-(4-(trifluoromethyl)phenyl)urea] |  |  | TDO inhibition, in words (rhTDO): marginal; IC50 ([1]; unit inferred, read-out: H460 IC50 or %): 13.8 µM; IC50 (MCF7; unit inferred, read-out: MCF7 IC50 or %): 21.4 µM; IC50 (rhIDO1): 0.5 µM |
| 21.4 | 38.2 | Oc1ccc(Cl)cc1-c1nn[nH]c1-c1ccc(C(F)(F)F)cc1 [DX-04-07, 4-chloro-2-(5-(4-(trifluoromethyl)phenyl)-1H-1,2,3-triazol-4-yl)phenol] |  |  | IC50 ([1]; read-out: H460 IC50): 27.4 µM; IC50 (MCF7; read-out: MCF7 IC50): 12.3 µM |
| 23.6 | 13.5 | COc1ccc(Cl)cc1-c1cn(Cc2ccc(C(F)(F)F)cc2)nn1 [DX-04-06, 4-(5-chloro-2-methoxyphenyl)-1-(4-(trifluoromethyl)benzyl)-1H-1,2,3-triazole] |  |  | IC50 ([1]; read-out: H460 IC50): 48.4 µM; IC50 (MCF7; read-out: MCF7 IC50): 49.3 µM |
